Results: patent publication US20240115582A1, “USE OF SODIUM TRANS-[TETRACHLORIDOBIS(1H-INDAZOLE)RUTHENATE(III)] FOR TREATING CANCERS” (Bold Therapeutics Inc., priority 2020, published 2024)

Columns and labels:
[1] = system: BRAFMT, MSS CRC cells; assay: CellTitre-Glo and Annexin V/PI sensitivity studies; assay type: cell-based; conditions: isogenic paired and non-isogenic V600E BRAFMT and BRAFWT panel
Method: Materials: A panel of isogenic paired and non-isogenic V600E BRAFMT and BRAFWT cells were used. BOLD-100, a ruthenium-based small molecule inhibitor, was obtained from BOLD Therapeutics. A FDA approved compound library was used.
(§1) Methods: Cell Titre Glo, Annexin V/PI high content screening, Flow Cytometry, Western blotting, Caspase 8, 3/7 activity, ROS-Glo^a H2O2, RNAi assays were used. RNA seq and bioinformatic analyses were performed on BOLD-100-treated BRAFMT/WT CRC cells, using the Illumina Novoseq platform and Reactome Pathway Analysis.
As illustrated in FIG. 2. BRAFMT, CMS1 CRC cells show increased sensitivity to treatment with BOLD-100. Upper: A. BRAFMT V600E HT-29 cells were treated with BOLD-100 for the indicated time and GRP78, CHOP and PARP levels determined by Western blotting (WB). B. HT-29 cells were treated with BOLD-100 for the indicated times and HSPA5, ATF4 and DDIT3 mRNA levels quantified using RT-PCR. Raw values were normalised to the expression of housekeeping genes ACTB and GAPDH and analysed using the ΔΔCT method. Lower: A. CRC cells were treated with increasing concentrations of BOLD-100 and cell viability determined using CellTitre-Glo® assay. IC50 was calculated using Prism software package. B. CRC cells were treated with BOLD-100 for 48 h. Apoptosis was assessed using Annexin V/propidium iodide (PI) staining by high-content screening. […]

[2] = system: GRP78, CHOP; assay: Western blotting of UPR markers after BOLD-100; assay type: cell-based; conditions: treatment with BOLD-100
Method: as §1
As illustrated in FIG. 2. BRAFMT, CMS1 CRC cells show increased sensitivity to treatment with BOLD-100. Upper: A. BRAFMT V600E HT-29 cells were treated with BOLD-100 for the indicated time and GRP78, CHOP and PARP levels determined by Western blotting (WB). B. HT-29 cells were treated with BOLD-100 for the indicated times and HSPA5, ATF4 and DDIT3 mRNA levels quantified using RT-PCR. Raw values were normalised to the expression of housekeeping genes ACTB and GAPDH and analysed using the ΔΔCT method. Lower: A. CRC cells were treated with increasing concentrations of BOLD-100 and cell viability determined using CellTitre-Glo® assay. IC50 was calculated using Prism software package. B. CRC cells were treated with BOLD-100 for 48 h. Apoptosis was assessed using Annexin V/propidium iodide (PI) staining by high-content screening. The graph indicates the percentage of positive stained cells following treatment with 100 μM BOLD-100. Mean of 3 independent experiments is shown.

[3] = system: BRAFMT CRC cells; assay: Cell death / caspase 3/7 activity after BOLD-100; assay type: cell-based
Method: as §1
A.: Positive hits for primary siRNA screen against 178 target TSG. sRNA was carried out for 24 h, followed by treatment with BOLD-100 for 48 h. Forty-Six targets were identified, resulting in either increased sensitivity or resistance to BOLD-100 (based on robust z-score ±1). B. Positive hits from secondary siRNA screen using 2 additional siRNA sequences against 46 targets. C. CRC cells were pre-incubated with DMSO or 20 μM of the pan-caspase inhibitor, z-VAD-FMK for 3 h followed by treatment with BOLD-100 for 48 h following which, apoptosis was assessed by WB analyses for PARP (top) and caspase-3/7 activity assay (bottom). […] Apoptosis was assessed by WB analysis for PARP (left) and caspase-3/7 activity (right). […] Apoptosis was determined by WB for PARP (left) and caspase-3/7 activity levels (right).
A. BRAFMT CRC cells were treated with BOLD-100 for the indicated time and ATR/KAP1/CKH1/CHK2 expression/activity measured by WB. B. CRC cells were co-treated with BOLD-100 and AZD6738 for 48 h and phosphorylation/expression of ATR/KAP1 and the downstream kinases measured. […]

[4] = system: pATR^T1989, pChk1^S345 and γH2AX; assay: Western blotting of ATR/CHK1 DNA damage signalling; assay type: cell-based
Method: as §1
(§2) A. BRAFMT CRC cells were treated with BOLD-100 for the indicated time and ATR/KAP1/CKH1/CHK2 expression/activity measured by WB. B. CRC cells were co-treated with BOLD-100 and AZD6738 for 48 h and phosphorylation/expression of ATR/KAP1 and the downstream kinases measured. C. CRC cells were treated with BOLD-100 for the indicated times and generation of ROS measured using a ROS-Glo™ H2O2 assay. D. and E. WB and caspase 3/7 activity in cells pre-treated with NAC for 3 h followed by treatment with BOLD-100 for an additional 24h.

[5] = system: BRAFMT CRC cells; assay: ROS-Glo H2O2 assay; assay type: cell-based
Method: as §1, §2

[6] = Degradation in water; assay type: physicochemical
Method: One skilled in the art will recognize that limiting this degradation reaction would be advantageous to obtaining the highest purity product. […] In one aspect of the invention, the sodium trans-[tetrachlorobis(1H-indazole)ruthenate (III)] solution is cooled to 4° C. during the formulation process. In another aspect of the invention, the sodium trans-[tetrachlorobis(1H-indazole)ruthenate (III)] solution is cooled to 2-8° C. during the formulation process. In another aspect of the invention, the sodium trans-[tetrachlorobis(1H-indazole)ruthenate (III)] solution is cooled to 2-15° C. during the formulation process.

[7] = system: BRAFMT CRC cells; assay: Combination of BOLD-100 with ATRi, cell viability (CellTitre-Glo, clonogenic survival); assay type: cell-based; conditions: in particular in BRAFMT CRC cells
Method: FDA approved drug screen targeting the significant pathways deregulated following BOLD-100 treatment in BRAFMT CRC. BRAFMT HT-29 (A) and VACO432 (B) cells were co-treated with BOLD-100, IC10, IC20, IC30 doses of 60 FDA approved drugs alone or in combination with BOLD-100 for 72 h and cell viability determined using the CellTitre-Glo® assay. Robust z-scores were calculated for combination treatment and normalized to effect of 50 μM BOLD-100. Combinations with r-Z score of <−1 were considered to enhance sensitivity to BOLD-100 treatment. Cell viability for combined BOLD-100/AZD6738 treatment was graphed using GraphPad Prism 8.0. C. Clonogenic survival assays in BRAFMT LIM2405, VACO432 and RKO CRC cells following co-treatment with BOLD-100 and AZD6738 for 14 days. Survival was graphed using GraphPad Prism 8.0.

[8] = system: BRAFMT CRC cells; assay: Combination of BOLD-100 with ATRi, apoptosis (PARP/cleaved caspase-3 WB, caspase 3/7 activity, PI flow cytometry); assay type: cell-based; conditions: for cell death following BOLD-100 treatment: co-treated with BOLD-100 for 48 h, BRAFMT CRC; for apoptosis when combined with BOLD-100: in particular in BRAFMT CRC cells
Method: HT-29 and VACO432 CRC cells were co-treated with BOLD-100 and ATRi AZD6738, M4344 or Berzosertib for 48 h and apoptosis was assessed using WB analyses for PARP and cleaved caspase-3 (A) and caspase 3/7 activity assays (B). C. BRAFMT CRC cells VACO432, COL0205 and LIM2405 were co-treated with BOLD-100 and ATRi AZD6738, M4344 or Berzosertib for 48 h and apoptosis assessed by PI flow cytometry.

## [Cl][Ru]([Cl])([Cl])[Cl].[Na+].c1ccc2[nH]ncc2c1.c1ccc2[nH]ncc2c1 [BOLD-100, Sodium trans-[tetrachloridobis(1H-indazole)ruthenate(III)]]
[1]
  IC50: 9.25 to 31 µM
[2]
  GRP78 levels: early decreases
  expression levels of the endoplasmic reticulum stress protein CHOP: increases
[3]
  type of cell death: caspase-8 dependent cell death
[4]; BRAFMT cells
  pATR^T1989, pChk1^S345 and γH2AX expression levels: rapid and potent increases
[5]
  ROS: acute increases in ROS
[6]
  stability in water: can degrade in water to Compound A

## Nc1nn2cc(F)cnc2c1C(=O)Nc1cncc(F)c1N1CCC(C(=O)N2CCN(C3COC3)CC2)CC1 [M4344]
[7]
  interaction when combined with BOLD-100: strong synergy
[8]
  cell death following BOLD-100 treatment: increase cell death
  apoptosis when combined with BOLD-100: apoptosis

## CC(=O)N[C@@H](CS)C(=O)O [NAC]
[3]; ROS scavenger
  effect on cell death following BOLD-100 treatment: rescued cell death
[4]; ROS scavenger, BRAFMT CRC cells
  effect on BOLD-100 induced CHOP, pATR^T1989, pChk1^S345 and γH2AX levels: abrogated

## CNCc1ccc(-c2cc(-c3nc(-c4ccc(S(=O)(=O)C(C)C)cc4)cnc3N)on2)cc1 [Berzosertib]
[8]
  cell death following BOLD-100 treatment: increase cell death

## C[C@@H]1COCCN1c1cc(C2([S@](C)(=N)=O)CC2)nc(-c2cc[nH]c3nccc2-3)n1 [AZD6738]
[7]
  interaction when combined with BOLD-100: strong synergy
[8]
  cell death following BOLD-100 treatment: increase cell death
  apoptosis when combined with BOLD-100: apoptosis
